Tests used:
[1] = Oral administration to rats, plasma concentration and absorption ratio (Example 1, Table 1); assay type: in vivo; conditions: rat, SD-strain male rats, 20 mg/kg, suspended in 0.5% methylcellulose
Protocol: The antiulcer drug 2-[[[3-methyl-4-(2,2,3,3,-tetrafluoropropoxy)-2-pyridyl]methyl]thio]benzimidazole (hereinafter sometimes referred to as Compound A) (400 mg) and lactic acid/glycollic acid copolymer (lactic acid/glycollic acid=50/50, average molecular weight calculated as polystyrene=5400) (3.6 g) were dissolved in dichloromethane (5 ml) to prepare an o/w type emulsion using a homogenizer in an aqueous solution (800 ml) of 0.1% polyvinyl alcohol (PVA). Then, the emulsion was slowly stirred with a conventional propeller stirrer. After dichloromethane vaporized and the microcapsules hardened, the microcapsules were collected by centrifugation and at the same time washed with purified water. The collected microcapsules were freeze-dried for a day to obtain powdery microcapsules.
The drug content in the total amount of the microcapsules was 10.0%, and the entrapment was 100%. The microcapsules were suspended in 0.5% methylcellulose, and orally administered to SD-strain male rats (body weight: 250 g) in a dose of 20 mg/kg. A suspension of the drug alone in 0.5% methylcellulose was also administered for comparison. In both cases, the plasma concentration of the drug and the absorption ratio were determined.

[2] = Oral administration to rats, plasma concentration and absorption ratio (Example 2, Table 2); assay type: in vivo, SD-strain male rats; conditions: rat, 20 mg/kg
Protocol: From this emulsion, a w/o/w type emulsion was prepared using a homogenizer in 0.5% PVA aqueous solution (1000 ml). Then, the emulsion was slowly stirred with a conventional propeller stirrer for 3 hours. After dichloromethane vaporized while w/o type microcapsules hardened, the microcapsules were centrifuged and collected and at the same time washed with purified water. The collected microcapsules were freeze-dried for a day to obtain powdery microcapsules.
The microcapsules were suspended in 0.5% methylcellulose, and orally administered to SD-strain male rats (body weight: 250 g) in a dose of 20 mg/kg. For comparative purposes, a suspension of the drug alone in 0.5% methylcellulose was also administered. In both cases, the plasma concentration of the drug and the absorption ratio were determined.

[3] = Solubility of Compound A at the pH in the small intestine (stated in words); assay type: physicochemical
[4] = pH no higher than 3; cited from earlier work

Fa ([1]; in vivo) | Cmax ([1]; plasma, read-out: Cmax (peak blood level)) | Tmax ([1]; plasma, read-out: Tmax (time required to obtain the peak blood level)) | Fa ([2]; in vivo) | Cmax ([2]; plasma) | Tmax ([2]; plasma) | solubility [3] | Structure (SMILES) | solubility in water [4]
5.4% | 218 ng/mL | 15 min | 5.4% | 218 ng/mL | 15 min | very low solubility | Cc1c(OCC(F)(F)C(F)F)ccnc1CSc1nc2ccccc2[nH]1 [Compound A, 2-[[[3-methyl-4-(2,2,3,3,-tetrafluoropropoxy)-2-pyridyl]methyl]thio]benzimidazole] | 
 |  |  |  |  |  |  | COc1ccc2c(c1)c(CC(=O)O)c(C)n2C(=O)c1ccc(Cl)cc1 [indomethacin] | not readily soluble

Source: patent US6113941A, “Substained release microcapsule of physiologically active compound which is slightly water soluble at pH 6 to 8” (Takeda Chemical Industries, Ltd., priority 1994, dated 2000)
